This is an account of results in patent publication US20230278972A1, “SUBSTITUTED HALOALKYL SULFONANILIDE HERBICIDES” (FMC Corporation, priority 2020, published 2023).

Read-outs that look alike come from different tables or passages of the source.

What all share (assay type): in vivo
The subject of test [1] is ragweed (common ragweed, Ambrosia artemisiifolia). Put plainly: Test A postemergence, ragweed. The following applies: Ambrosia artemisiifolia, post-emergence, 240 h, Postemergence, 0 to 100 scale (0 no effect, 100 complete control); for pest or weed control at 125 g/ha: 125 g ai/ha; for pest or weed control at 500 g/ha: 500 g ai/ha. In short, it runs like this:
(§1)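 After sowing into a sand-amended loam, pots for the preemergence test were treated by spraying directly onto soil. In parallel, seedlings at the one- to two-leaf stage and 2 to 10 cm tall were treated postemergence with the identical surfactant-containing formulation.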

In test [2] the test system is barnyardgrass (Echinochloa crus-galli). Briefly: Test A postemergence, barnyardgrass. The note with it: Echinochloa crus-galli, post-emergence, 240 h, Postemergence, 0 to 100 scale (0 no effect, 100 complete control); for pest or weed control at 125 g/ha: 125 g ai/ha; for pest or weed control at 500 g/ha: 500 g ai/ha. The essentials: (§2)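 Preemergence: seeded pots of loam plus sand received a directed soil spray. Postemergence: seedlings at one to two leaves, 2 to 10 cm high, were oversprayed. Each compound was formulated in a non-phytotoxic solvent mix that included a surfactant.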

Test [3] relates to ragweed (common ragweed, Ambrosia artemisiifolia). Briefly: Test A preemergence, ragweed. The note with it: Ambrosia artemisiifolia, pre-emergence, 240 h, Preemergence; for pest or weed control at 125 g/ha: 125 g ai/ha, visual injury, approx. 10 days; for pest or weed control at 500 g/ha: 500 g ai/ha. In short, it runs like this:
as §1

For test [4], the system named is galium (catchweed bedstraw, Galium aparine). Briefly: Test A postemergence, galium. The following applies: Galium, post-emergence, 240 h, Postemergence, 0 to 100 scale (0 no effect, 100 complete control); for pest or weed control at 125 g/ha: 125 g ai/ha; for pest or weed control at 500 g/ha: 500 g ai/ha. In short, it runs like this: as §2
Where [5] appears, read: read-out: Plant response rating, Ragweed.
Where [6] appears, read: visual injury vs untreated controls after approx. 10 days, read-out: Ragweed plant response rating.
Setting [7] is: read-out: Plant response rating, Barnyardgrass.
The mark [8] stands for this setting: visual injury vs untreated controls after approx. 10 days, read-out: Barnyardgrass plant response rating.
The mark [9] stands for this setting: 0 to 100 scale (0 no effect, 100 complete control), read-out: Plant response rating, Ragweed.
Setting [10] is: read-out: Plant response rating, Galium.
[11] abbreviates: visual injury vs untreated controls after approx. 10 days, read-out: Galium plant response rating.

Consider `Cc1c(NS(=O)(=O)C(F)(F)F)cc(C(=O)N2CCOCC2)c(C)c1F` [Compound 190, 1,1,1-Trifluoro-N-[3-fluoro-2,4-dimethyl-5-(4-morpholinylcarbonyl)phenyl]methanesulfonamide], for which the pest or weed control at 125 g/ha in test [1] (setting [5]) was 80%; in test [2] (setting [7]) it was 80%; in test [3] (setting [9]) it was 70%; in test [4] (setting [10]), 70%. Further, the pest or weed control at 500 g/ha in test [1] (setting [6]), in test [2] (setting [8]), in test [3] (setting [9]) and in test [4] (setting [11]) was 90% throughout.

As for `Cc1cc(C)c(C2=NOC3(CCCC3)C2)cc1NS(=O)(=O)C(F)(F)F` [Compound 207, N-[2,4-Dimethyl-5-(1-oxa-2-azaspiro[4.4]non-2-en-3-yl)phenyl]-1,1,1-trifluoromethanesulfonamide], the pest or weed control at 125 g/ha in test [1] (setting [5]) was found to be 20%; in test [2] (setting [7]), 60%; in test [3] (setting [9]), 20%; in test [4] (setting [10]), 50%. For the same compound, the pest or weed control at 500 g/ha in test [1] (setting [6]) stood at 70%; in test [2] (setting [8]) it was 80%; in test [3] (setting [9]) it was 70%; in test [4] (setting [11]), 70%.

Turning to `Cc1cc(C)c(C(=O)N2CCC(F)(F)CC2)cc1NS(=O)(=O)C(F)(F)F` [Compound 241, N-[5-[(4,4-Difluoro-1-piperidinyl)carbonyl]-2,4-dimethylphenyl]-1,1,1-trifluoromethanesulfonamide], the pest or weed control at 125 g/ha in test [1] (setting [5]) was determined as 40%; in test [2] (setting [7]) it was 60%; in test [3] (setting [9]) it was 70%; in test [4] (setting [10]), 80%. Moreover, the pest or weed control at 500 g/ha in test [1] (visual injury approx. 10 days, read-out: Plant response rating, Ragweed) was 80%; in test [2] (visual injury approx. 10 days, read-out: Plant response rating, Barnyardgrass), 90%; in test [3] (visual injury on 0 to 100 scale (0 no effect, 100 complete control), approximately 10 days, read-out: Ragweed plant response rating), 90%; in test [4] (visual injury approx. 10 days, read-out: Plant response rating, Galium) it was 90%.
